Laboratory results: US7462600B2, “Macrolides” (Pfizer Inc, priority 2004, dated 2008)
Values after ≈ are worked out from the molar mass of the structure shown.

Assays:
Assay type in all cases: cell-based
[1] = system: Haemophilus influenzae 1218; assay: MIC, microtiter broth dilution (NCCLS M100-S14), H. influenzae 1218 (susceptible); conditions: H. influenzae 1218 (susceptible)
Procedure, shortened: (§1)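 Steps: dissolve compound in DMSO to 40 mg/ml stock; dilute in broth across microtiter trays; inoculate strains; record MIC per NCCLS M100-S14.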

[2] = system: Streptococcus pneumoniae 1095; conditions: S. pneumoniae 1095 (ermB); microtiter broth dilution
Procedure, shortened: as §1

[3] = system: Streptococcus pneumoniae 1175; conditions: S. pneumoniae 1175 (mefA); microtiter broth dilution
Procedure, shortened: as §1

[4] = system: Streptococcus pyogenes 1079; assay: MIC, microtiter broth dilution (NCCLS M100-S14), S. pyogenes 1079 (ermB); conditions: S. pyogenes 1079 (ermB)
Procedure, shortened: as §1

[5] = system: Streptococcus pneumoniae 1016; assay: MIC, microtiter broth dilution (NCCLS M100-S14), S. pneumoniae 1016 (susceptible); conditions: S. pneumoniae 1016 (susceptible)
Procedure, shortened: as §1

Row | SMILES | MIC H. influenzae 1218 [1] | MIC S. pneumo. 1095 [2] | MIC S. pneumo. 1175 [3] | MIC S. pyogenes 1079 [4] | MIC S. pneumo. 1016 [5]
1 | CCC1OC(=O)C(C)C(=O)C(C)C(OC2OC(C)CC(N(C)C)C2O)C(C)(OC)CC(C)C(=O)C(C)C2N(CC3CCCN3C(=O)c3nc4ccncc4[nH]3)C(=O)OC12C (centres unmarked) [10.24] | 2 mg/L (≈ 2.38 µM) | <0.06 mg/L | 1 mg/L (≈ 1.19 µM) | >64.00 mg/L | <0.06 mg/L
2 | CCC1OC(=O)C(C)C(=O)C(C)C(OC2OC(C)CC(N(C)C)C2O)C(C)(OC)CC(C)C(=O)C(C)C2N(CC3CCCN3C(=O)c3nc4cccnc4[nH]3)C(=O)OC12C (centres unmarked) [10.25] | 4 mg/L (≈ 4.76 µM) | <0.06 mg/L | 0.5 mg/L (≈ 0.595 µM) | >64.00 mg/L | <0.06 mg/L
3 | CCC1OC(=O)C(C)C(=O)C(C)C(OC2OC(C)CC(N(C)C)C2O)C(C)(OC)CC(C)C(=O)C(C)C2N(CC3CCCN3C(=O)c3nc4cncnc4[nH]3)C(=O)OC12C (centres unmarked) [10.26] | 2 mg/L (≈ 2.38 µM) | <0.06 mg/L | 1 mg/L (≈ 1.19 µM) | >64.00 mg/L | <0.06 mg/L
4 | CCC1OC(=O)C(C)(F)C(=O)C(C)C(OC2OC(C)CC(N(C)C)C2O)C(C)(OC)CC(C)C(=O)C(C)C2N(CC3CCCN3C(=O)c3cc4ccccn4n3)C(=O)OC12C (centres unmarked) [10.28] | 1 mg/L (≈ 1.17 µM) | <0.06 mg/L | 0.12 mg/L (≈ 0.14 µM) | 16 mg/L (≈ 18.6 µM) | <0.06 mg/L
5 | CCC1OC(=O)C(C)(F)C(=O)C(C)C(OC2OC(C)CC(N(C)C)C2O)C(C)(OC)CC(C)C(=O)C(C)C2N(CC3CCCN3C(=O)c3nccc4ccccc34)C(=O)OC12C (centres unmarked) [10.29] | 2 mg/L (≈ 2.3 µM) | <0.06 mg/L | 0.12 mg/L (≈ 0.138 µM) | 16 mg/L (≈ 18.4 µM) | <0.06 mg/L
6 | CCC1OC(=O)C(C)(F)C(=O)C(C)C(OC2OC(C)CC(N(C)C)C2O)C(C)(OC)CC(C)C(=O)C(C)C2N(CC3CCCN3C(=O)c3ccc4cccnc4n3)C(=O)OC12C (centres unmarked) [10.30] | 2 mg/L (≈ 2.3 µM) | <0.06 mg/L | 0.12 mg/L (≈ 0.138 µM) | 32 mg/L (≈ 36.8 µM) | <0.06 mg/L
7 | CCC1OC(=O)C(C)C(=O)C(C)C(OC2OC(C)CC(N(C)C)C2O)C(C)(OC)CC(C)C(=O)C(C)C2N(CC3CCCN3C(=O)c3ccc4[nH]ncc4c3)C(=O)OC12C (centres unmarked) [10.32] | 1 mg/L (≈ 1.19 µM) | <0.06 mg/L | 0.5 mg/L (≈ 0.595 µM) | >64.00 mg/L | <0.06 mg/L
8 | CCC1OC(=O)C(C)C(=O)C(C)C(OC2OC(C)CC(N(C)C)C2O)C(C)(OC)CC(C)C(=O)C(C)C2N(CC3CCCN3C(=O)c3cccc4nccnc34)C(=O)OC12C (centres unmarked) [10.33] | 2 mg/L (≈ 2.35 µM) | <0.06 mg/L | 0.25 mg/L (≈ 0.293 µM) | >64.00 mg/L | <0.06 mg/L
9 | CCC1OC(=O)C(C)C(=O)C(C)C(OC2OC(C)CC(N(C)C)C2O)C(C)(OC)CC(C)C(=O)C(C)C2N(CC3CCCN3C(=O)c3cc4ccncc4[nH]3)C(=O)OC12C (centres unmarked) [10.34] | 2 mg/L (≈ 2.38 µM) | 0.12 mg/L (≈ 0.143 µM) | 0.12 mg/L (≈ 0.143 µM) | >64.00 mg/L | <0.06 mg/L
10 | CCC1OC(=O)C(C)C(=O)C(C)C(OC2OC(C)CC(N(C)C)C2O)C(C)(OC)CC(C)C(=O)C(C)C2N(CC3CCCN3C(=O)c3cccn(Cc4ccccc4)c3=O)C(=O)OC12C (centres unmarked) [10.36] | 16 mg/L (≈ 17.6 µM) | 4 mg/L (≈ 4.41 µM) | 0.5 mg/L (≈ 0.551 µM) | >64.00 mg/L | <0.06 mg/L
